System: Plasmodium berghei
Assay: Luciferase/luciferin-expressing antifolate-resistant parasites were used to infect a culture of HepG2 cells that were pre-incubated with compounds. Infected hepatocytes emit light due to the luciferase reaction. Assay results are presented as the percent inhibition of light emission compared to control. […]
Type: functional
Conditions: sporozoite; for IC90: read-out: LUCIFERASE INFECTION ASSAY - IC90

Compound	IC90	also measured
N/C(=N\OC(=O)c1ccc2ncsc2c1)c1ccccc1	9.73 µM	IC50 (FFLUC_HILL_SLOPE 2.58, FFLUC_R_SQUARED 0.671, PBLUC_HILL_SLOPE 1.01, PBLUC_R_SQUARED 0.623, read-out: LUCIFERASE INFECTION ASSAY - IC50): 1.1 µM
O=C(COC(=O)c1cc2ccccc2cc1O)NC(c1ccccc1)c1ccccc1	> 10 µM	IC50 (FFLUC_HILL_SLOPE 2.56, FFLUC_R_SQUARED 0.57, PBLUC_HILL_SLOPE 2.71, PBLUC_R_SQUARED 0.551, read-out: LUCIFERASE INFECTION ASSAY - IC50): 4.79 µM
COc1ccc2c(-c3ccccc3)cc(SC(C)C(=O)N3CCNC3=O)nc2c1 (stereo not given)	1.25 µM	IC50 (FFLUC_HILL_SLOPE 2.47, FFLUC_R_SQUARED 0.615, PBLUC_HILL_SLOPE 18.2, PBLUC_R_SQUARED 0.514, read-out: LUCIFERASE INFECTION ASSAY - IC50): 1.11 µM
Cc1cc(C2=NNC(=NC3CC3)SC2)c(C)n1-c1ccc2c(c1)OCO2	9.71 µM	IC50 (FFLUC_HILL_SLOPE 2.46, FFLUC_R_SQUARED 0.719, PBLUC_HILL_SLOPE 1.67, PBLUC_R_SQUARED 0.595, read-out: LUCIFERASE INFECTION ASSAY - IC50): 2.61 µM
CC(c1nc2ccccc2s1)N(C)c1ncnc2sc3c(c12)CCC3 (stereo not given)	> 10 µM	IC50 (FFLUC_HILL_SLOPE 2.52, FFLUC_R_SQUARED 0.413, HEPG2TOX_HILL_SLOPE 5.64, HEPG2TOX_R_SQUARED 0.118, PBLUC_HILL_SLOPE 2.14, PBLUC_R_SQUARED 0.426, read-out: LUCIFERASE INFECTION ASSAY - IC50): > 10 µM
CN(C1CCCCC1)S(=O)(=O)c1ccc(NC(=S)NC(=O)c2ccco2)cc1	> 10 µM	IC50 (FFLUC_HILL_SLOPE 2.51, FFLUC_R_SQUARED 0.131, read-out: LUCIFERASE INFECTION ASSAY - IC50): > 10 µM
CC(C)(C)c1ccc(C(=N)NOC(=O)c2sccc2Cl)cc1	2.4 µM	IC50 (FFLUC_HILL_SLOPE 2.56, FFLUC_R_SQUARED 0.405, HEPG2TOX_HILL_SLOPE 0.0994, HEPG2TOX_R_SQUARED 0.101, PBLUC_HILL_SLOPE 0.809, PBLUC_R_SQUARED 0.834, read-out: LUCIFERASE INFECTION ASSAY - IC50): 0.159 µM
C=CCn1c(SCC(=O)c2cc(C)n(CC3CCCO3)c2C)nc2scc(-c3ccc(C)cc3)c2c1=O (stereo not given)	> 10 µM	IC50 (FFLUC_HILL_SLOPE 2.53, FFLUC_R_SQUARED 0.599, read-out: LUCIFERASE INFECTION ASSAY - IC50): > 10 µM
O=C(Nc1nc2ccccc2[nH]1)c1cn(-c2ccccc2C(F)(F)F)nn1	> 10 µM	IC50 (FFLUC_HILL_SLOPE 2.58, FFLUC_R_SQUARED 0.587, PBLUC_HILL_SLOPE 2.16, PBLUC_R_SQUARED 0.829, read-out: LUCIFERASE INFECTION ASSAY - IC50): 5.53 µM
c1ccc(NCc2ccc(-c3cn4c(-c5ccccc5)cnc4cn3)cc2)cc1	> 8.77 µM	IC50 (FFLUC_HILL_SLOPE 2.57, FFLUC_R_SQUARED 0.0602, PBLUC_HILL_SLOPE 15.1, PBLUC_R_SQUARED 0.239, read-out: LUCIFERASE INFECTION ASSAY - IC50): 7.8 µM
Cc1nn(-c2ccccc2)c2nc(-c3cccs3)cc(C(=O)OC(C)C(=O)N3CCCc4ccccc43)c12 (stereo not given)	> 10 µM	IC50 (FFLUC_HILL_SLOPE 2.63, FFLUC_R_SQUARED 0.683, PBLUC_HILL_SLOPE 9.18, PBLUC_R_SQUARED 0.333, read-out: LUCIFERASE INFECTION ASSAY - IC50): 8.32 µM
O=[N+]([O-])c1ccccc1Sc1sc2ncnc(N/N=C/c3cccs3)c2c1-c1ccccc1	1.17 µM	IC50 (FFLUC_HILL_SLOPE 2.47, FFLUC_R_SQUARED 0.702, HEPG2TOX_HILL_SLOPE 1.48, HEPG2TOX_R_SQUARED 0.963, PBLUC_HILL_SLOPE 5.47, PBLUC_R_SQUARED 0.841, read-out: LUCIFERASE INFECTION ASSAY - IC50): 0.785 µM
Cc1ccc(/C=C2\Oc3cc(O)cc(C)c3C2=O)cc1	7.36 µM	IC50 (FFLUC_HILL_SLOPE 2.5, FFLUC_R_SQUARED 0.135, PBLUC_HILL_SLOPE 2.13, PBLUC_R_SQUARED 0.666, read-out: LUCIFERASE INFECTION ASSAY - IC50): 2.63 µM
Cc1ccc2cc(CN(CC(C)C)C(=O)c3cccc(Cl)c3)c(=O)[nH]c2c1	4.61 µM	IC50 (FFLUC_HILL_SLOPE 2.55, FFLUC_R_SQUARED 0.111, HEPG2TOX_HILL_SLOPE 13.7, HEPG2TOX_R_SQUARED 0.575, PBLUC_HILL_SLOPE 6.1, PBLUC_R_SQUARED 0.569, read-out: LUCIFERASE INFECTION ASSAY - IC50): 3.21 µM
CCN(Cc1ccccc1)c1ccc(/C=N/Nc2ccc(C)c(Cl)c2)cc1	> 10 µM	IC50 (FFLUC_HILL_SLOPE 2.55, FFLUC_R_SQUARED 0.818, read-out: LUCIFERASE INFECTION ASSAY - IC50): > 10 µM
CC(C)C(=O)Nc1ccc(-c2nc3ccccc3[nH]2)cc1	> 11.8 µM	IC50 (FFLUC_HILL_SLOPE 2.58, FFLUC_R_SQUARED 0.591, PBLUC_HILL_SLOPE 1.21, PBLUC_R_SQUARED 0.595, read-out: LUCIFERASE INFECTION ASSAY - IC50): 4.49 µM
O=C1NC2(CCCc3ccccc32)C(=O)N1Cc1cc2ccccc2nc1Cl (stereo not given)	9.89 µM	IC50 (FFLUC_HILL_SLOPE 2.55, FFLUC_R_SQUARED 0.444, HEPG2TOX_HILL_SLOPE 2.36, HEPG2TOX_R_SQUARED 0.953, PBLUC_HILL_SLOPE 3.3, PBLUC_R_SQUARED 0.364, read-out: LUCIFERASE INFECTION ASSAY - IC50): 5.08 µM
COc1ccc(C(C#N)=C2C=CC(=NO)C=C2)cc1	> 13.1 µM	IC50 (FFLUC_HILL_SLOPE 2.5, FFLUC_R_SQUARED 0.687, PBLUC_HILL_SLOPE 18.8, PBLUC_R_SQUARED 0.229, read-out: LUCIFERASE INFECTION ASSAY - IC50): 12.9 µM
O=[N+]([O-])c1ccc(Sc2ccc(Cl)cc2)c(-c2cc[nH]n2)c1	> 9.95 µM	IC50 (FFLUC_HILL_SLOPE 2.47, FFLUC_R_SQUARED 0.0888, HEPG2TOX_HILL_SLOPE 0.21, HEPG2TOX_R_SQUARED 0.178, PBLUC_HILL_SLOPE 0.977, PBLUC_R_SQUARED 0.273, read-out: LUCIFERASE INFECTION ASSAY - IC50): > 9.95 µM
Cc1cccc(CNc2nc3cnc(-c4cccc(Oc5ccccc5)c4)cc3n2C)c1	3.88 µM	IC50 (FFLUC_HILL_SLOPE 2.46, FFLUC_R_SQUARED 0.608, HEPG2TOX_HILL_SLOPE 16, HEPG2TOX_R_SQUARED 0.341, PBLUC_HILL_SLOPE 8.58, PBLUC_R_SQUARED 0.684, read-out: LUCIFERASE INFECTION ASSAY - IC50): 3 µM
O=C(c1cc2c(s1)CCC2)N1C=CN(c2ccc(C(F)(F)F)cn2)C1c1nccn1-c1ccc(C(F)(F)F)cn1 (stereo not given)	> 10 µM	IC50 (FFLUC_HILL_SLOPE 2.58, FFLUC_R_SQUARED 0.668, PBLUC_HILL_SLOPE 14.8, PBLUC_R_SQUARED 0.174, read-out: LUCIFERASE INFECTION ASSAY - IC50): 9.12 µM
CC(C)(C)C(=O)Nc1ccc(-c2nc3ncccc3o2)c(Cl)c1	4.94 µM	IC50 (FFLUC_HILL_SLOPE 2.53, FFLUC_R_SQUARED 0.8, PBLUC_HILL_SLOPE 0.961, PBLUC_R_SQUARED 0.809, read-out: LUCIFERASE INFECTION ASSAY - IC50): 0.502 µM
Oc1cccnc1NC(c1ccccc1F)c1ccc2cccnc2c1O (stereo not given)	9.5 µM	IC50 (FFLUC_HILL_SLOPE 2.5, FFLUC_R_SQUARED 0.451, HEPG2TOX_HILL_SLOPE 1.9, HEPG2TOX_R_SQUARED 0.963, PBLUC_HILL_SLOPE 13, PBLUC_R_SQUARED 0.418, read-out: LUCIFERASE INFECTION ASSAY - IC50): 8.03 µM
Cc1ccc2nc(NC(=O)c3cccc(C(F)(F)F)c3)c(C(=O)NC3CCCCC3)n2c1	0.579 µM	IC50 (FFLUC_HILL_SLOPE 2.54, FFLUC_R_SQUARED 0.701, HEPG2TOX_HILL_SLOPE 1.03, HEPG2TOX_R_SQUARED 0.261, PBLUC_HILL_SLOPE 2.67, PBLUC_R_SQUARED 0.838, read-out: LUCIFERASE INFECTION ASSAY - IC50): 0.254 µM
CCc1nn2c(=O)cc(CSc3ccc(C)cc3)[nH]c2c1-c1ccc(F)cc1	2.98 µM	IC50 (FFLUC_HILL_SLOPE 2.56, FFLUC_R_SQUARED 0.75, PBLUC_HILL_SLOPE 10.5, PBLUC_R_SQUARED 0.512, read-out: LUCIFERASE INFECTION ASSAY - IC50): 2.42 µM
Cc1ccc(S(=O)(=O)Nc2ccc(Oc3ccc(Cl)cc3)cc2)cc1	> 8.83 µM	IC50 (FFLUC_HILL_SLOPE 2.59, FFLUC_R_SQUARED 0.0226, PBLUC_HILL_SLOPE 17.9, PBLUC_R_SQUARED 0.275, read-out: LUCIFERASE INFECTION ASSAY - IC50): 8.28 µM
OC(c1cccc(OC(F)(F)F)c1)c1nnc(Nc2ccc(F)c(Cl)c2)s1 (stereo not given)	> 10 µM	IC50 (FFLUC_HILL_SLOPE 2.61, FFLUC_R_SQUARED 0.0634, read-out: LUCIFERASE INFECTION ASSAY - IC50): > 10 µM
CC(=N)C(C#N)c1csc(Nc2cc(C)cc(C)c2)n1 (stereo not given)	> 10 µM	IC50 (FFLUC_HILL_SLOPE 2.53, FFLUC_R_SQUARED 0.471, read-out: LUCIFERASE INFECTION ASSAY - IC50): > 10 µM
Cc1ccc(C(C)C)c(OCC(=O)Nc2ccc(I)c(C)n2)c1	> 10 µM	IC50 (FFLUC_HILL_SLOPE 2.58, FFLUC_R_SQUARED 0.455, read-out: LUCIFERASE INFECTION ASSAY - IC50): > 10 µM
O=c1c(Cl)c(Cl)cnn1-c1cc(Cl)cc(Cl)c1	4.28 µM	IC50 (FFLUC_HILL_SLOPE 2.56, FFLUC_R_SQUARED 0.592, HEPG2TOX_HILL_SLOPE 5.14, HEPG2TOX_R_SQUARED 0.846, PBLUC_HILL_SLOPE 13.3, PBLUC_R_SQUARED 0.218, read-out: LUCIFERASE INFECTION ASSAY - IC50): 3.63 µM
